Results taken from US5571804A, “Cephalosporin antibiotics” (priority 1993, dated 1996).

Tests used:
[1] = tested on: Staphylococcus aureus 6538P; experiment: MIC, two-fold agar dilution; assay type: cell-based; details: Muller-Hinton agar, 37° C., 20 hours
[2] = tested on: Staphylococcus aureus giorgio; experiment: MIC, two-fold agar dilution; assay type: cell-based; details: Muller-Hinton agar, 37° C., 20 hours
[3] = tested on: Staphylococcus aureus 77; experiment: MIC, two-fold agar dilution; assay type: cell-based; details: Muller-Hinton agar, 37° C., 20 hours
[4] = tested on: Staphylococcus aureus 241; experiment: MIC, two-fold agar dilution; assay type: cell-based; details: Muller-Hinton agar, 37° C., 20 hours
[5] = tested on: Staphylococcus epidermidis 887E; experiment: MIC, two-fold agar dilution; assay type: cell-based; details: Muller-Hinton agar, 37° C., 20 hours
[6] = tested on: Streptococcus laecalis 29212A; experiment: MIC, two-fold agar dilution; assay type: cell-based; details: Muller-Hinton agar, 37° C., 20 hours
[7] = tested on: E. coli 10536; experiment: MIC, two-fold agar dilution; assay type: cell-based; details: Muller-Hinton agar, 37° C., 20 hours
[8] = tested on: E. coli 3190Y; experiment: MIC, two-fold agar dilution; assay type: cell-based; details: Muller-Hinton agar, 37° C., 20 hours
[9] = tested on: Pseudomonas aeruginosa 1912E; experiment: MIC, two-fold agar dilution; assay type: cell-based; details: Muller-Hinton agar, 37° C., 20 hours
[10] = tested on: Pseudomonas aeruginosa 10145; experiment: MIC, two-fold agar dilution; assay type: cell-based; details: Muller-Hinton agar, 37° C., 20 hours
[11] = tested on: Pseudomonas aeruginosa 6065; experiment: MIC, two-fold agar dilution; assay type: cell-based; details: Muller-Hinton agar, 37° C., 20 hours
[12] = tested on: Acinetobacter calcoaceticus 15473A; experiment: MIC, two-fold agar dilution; assay type: cell-based; details: Muller-Hinton agar, 37° C., 20 hours
[13] = tested on: Citrobacter diversus 2046E; experiment: MIC, two-fold agar dilution; assay type: cell-based; details: Muller-Hinton agar, 37° C., 20 hours
[14] = tested on: Klebsiella aerogenes K1 + 1082E; experiment: MIC, two-fold agar dilution; assay type: cell-based; details: Muller-Hinton agar, 37° C., 20 hours
[15] = tested on: Proteus vularis 6059A; experiment: MIC, two-fold agar dilution; assay type: cell-based; details: Muller-Hinton agar, 37° C., 20 hours
[16] = tested on: Serratia marcescens 1826E; experiment: MIC, two-fold agar dilution; assay type: cell-based; details: Muller-Hinton agar, 37° C., 20 hours
[17] = tested on: Salmonella typhimurium 14028A; experiment: MIC, two-fold agar dilution; assay type: cell-based; details: Muller-Hinton agar, 37° C., 20 hours
[18] = pharmakinetic variables in SD rats; details: rat, in vivo, iv, 20 mg/kg
Method: The pharmakinetic variables were determined using SD rats (.male.) of a body weight of 230±10g as follows. The "S" compound of each of the Examples was injected to femoral vein of 4-5 rats by 20mg/Kg and then blood was collected from femoral artery in 1, 2.5, 5, 10, 20, 40, 60 and 120 min.

[19] = tested on: E. coli 851E; experiment: MIC, two-fold agar dilution; assay type: cell-based; details: Muller-Hinton agar, 37° C., 20 hours
[20] = tested on: E. coli TEM1 1193E; experiment: MIC, two-fold agar dilution; assay type: cell-based; details: Muller-Hinton agar, 37° C., 20 hours
[21] = tested on: E. coli TEM3 3455E; experiment: MIC, two-fold agar dilution; assay type: cell-based; details: Muller-Hinton agar, 37° C., 20 hours
[22] = tested on: E. coli TEM5 3739E; experiment: MIC, two-fold agar dilution; assay type: cell-based; details: Muller-Hinton agar, 37° C., 20 hours
[23] = tested on: E. coli TEM7 3457E; experiment: MIC, two-fold agar dilution; assay type: cell-based; details: Muller-Hinton agar, 37° C., 20 hours
[24] = tested on: E. coli TEM9 2639E; experiment: MIC, two-fold agar dilution; assay type: cell-based; details: Muller-Hinton agar, 37° C., 20 hours
[25] = tested on: Enterobacter cloacae IND + VE 1194E; experiment: MIC, two-fold agar dilution; assay type: cell-based; details: Muller-Hinton agar, 37° C., 20 hours
[26] = tested on: Enterobacter cloacae P99; experiment: MIC, two-fold agar dilution; assay type: cell-based; details: Muller-Hinton agar, 37° C., 20 hours
[27] = tested on: Klebsiella aerogenes SHV-1 1976E; experiment: MIC, two-fold agar dilution; assay type: cell-based; details: Muller-Hinton agar, 37° C., 20 hours

Structure (SMILES) | minimal inhibitory concentration (MIC) [1] | minimal inhibitory concentration (MIC) [2] | minimal inhibitory concentration (MIC) [3] | minimal inhibitory concentration (MIC) [4] | minimal inhibitory concentration (MIC) [5] | minimal inhibitory concentration (MIC) [6] | minimal inhibitory concentration (MIC) [7] | minimal inhibitory concentration (MIC) [8] | minimal inhibitory concentration (MIC) [9] | minimal inhibitory concentration (MIC) [10] | minimal inhibitory concentration (MIC) [11] | minimal inhibitory concentration (MIC) [12] | minimal inhibitory concentration (MIC) [13] | minimal inhibitory concentration (MIC) [14] | minimal inhibitory concentration (MIC) [15] | minimal inhibitory concentration (MIC) [16] | minimal inhibitory concentration (MIC) [17] | minimal inhibitory concentration (MIC) [19] | minimal inhibitory concentration (MIC) [20] | minimal inhibitory concentration (MIC) [21] | further results
CC(C)(O/N=C(\C(=O)N[C@@H]1C(=O)N2C(C(=O)[O-])=C(C[n+]3ccccc3)CS[C@H]12)c1csc(N)n1)C(=O)O [Ceftazidime, reference compound] | 16 | 4 | 32 | > 128 | > 128 | > 128 | 0.13 | 0.063 | 1 | 2 | 16 | 2 | 0.5 | 0.25 | 0.063 | 0.25 | 0.25 | – | – | – | AUC at 2 h [18]: 31100 ng·h/mL
Nc1cc(N)nc(SCC2=C(C(=O)O)N3C(=O)[C@@H](NC(=O)/C(=N\O[C@H](C(=O)O)c4ccc(O)c(O)c4)c4csc(N)n4)[C@H]3SC2)n1 [Compound I-1S, 7-[(Z)-2-(aminothiazol-4-yl)-2-(α-carboxy-3,4-dihydroxybenzyloxyimino)acetamido]-3-(4,6-diamino-pyrimidine-2-yl) thiomethyl-3-cephem-4-carboxylate] | 2 | 1 | 8 | 64 | 32 | 4 | ≤ 0.008 | 0.031 | 0.25 | 0.13 | 0.25 | 0.13 | 0.063 | 0.031 | 0.13 | 0.25 | 0.016 | 0.031 | 0.031 | 0.016 | minimal inhibitory concentration (MIC) [22]: 0.063; minimal inhibitory concentration (MIC) [23]: ≤ 0.008; minimal inhibitory concentration (MIC) [24]: 0.25; minimal inhibitory concentration (MIC) [25]: 2; minimal inhibitory concentration (MIC) [26]: 16; minimal inhibitory concentration (MIC) [27]: 0.13; AUC at 2 h [18]: 61600 ng·h/mL; half-life [18]: 1.03 h
Nc1cc(SCC2=C(C(=O)O)N3C(=O)[C@@H](NC(=O)/C(=N\O[C@@H](C(=O)O)c4ccc(O)c(O)c4)c4csc(N)n4)[C@H]3SC2)nc(N)n1 [Compound I-6R, 7-[(Z)-2-(aminothiazol-4-yl)-2-(α-carboxy-3,4-dihydroxybenzyloxyimino)acetamido]-3-(2,6-diamino-pyrimidine-4-yl)thiomethyl-3-cephem-4-carboxylate] | 1 | 1 | 16 | 64 | 32 | 4 | 0.016 | 0.063 | 0.25 | 0.25 | 1 | 0.25 | 0.13 | 0.25 | 0.25 | 0.5 | 0.13 | 0.063 | 0.063 | 0.031 | minimal inhibitory concentration (MIC) [22]: 0.063; minimal inhibitory concentration (MIC) [23]: 0.016; minimal inhibitory concentration (MIC) [24]: 0.25; minimal inhibitory concentration (MIC) [25]: 4; minimal inhibitory concentration (MIC) [26]: 8; minimal inhibitory concentration (MIC) [27]: 0.25
Nc1cc(SCC2=C(C(=O)O)N3C(=O)[C@@H](NC(=O)/C(=N\O[C@H](C(=O)O)c4ccc(O)c(O)c4)c4csc(N)n4)[C@H]3SC2)nc(N)n1 [Compound I-6S, 7-[(Z)-2-(aminothiazol-4-yl)-2-(α-carboxy-3,4-dihydroxybenzyloxyimino)acetamido]-3-(2,6-diamino-pyrimidine-4-yl)thiomethyl-3-cephem-4-carboxylate] | 1 | 1 | 8 | 64 | 32 | 2 | ≤ 0.008 | 0.031 | – | 0.25 | 0.25 | 0.13 | 0.063 | 0.031 | 0.13 | 0.13 | 0.016 | 0.031 | 0.031 | 0.016 | minimal inhibitory concentration (MIC) [22]: 0.063; minimal inhibitory concentration (MIC) [23]: ≤ 0.008; minimal inhibitory concentration (MIC) [24]: 0.13; minimal inhibitory concentration (MIC) [25]: 2; minimal inhibitory concentration (MIC) [26]: 8; minimal inhibitory concentration (MIC) [27]: 0.13; AUC at 2 h [18]: 59800 ng·h/mL; half-life [18]: 1.03 h
Nc1cc(SCC2=C(C(=O)O)N3C(=O)[C@@H](NC(=O)/C(=N\O[C@@H](C(=O)O)c4ccc(O)c(O)c4)c4csc(N)n4)[C@H]3SC2)ncn1 [Compound I-7R, 7[-(Z)-2-(aminothiazol-4-yl)-2-(α-carboxy-3,4-dihydroxybenzyloxyimino)acetamido]-3-(6-amino-pyrimidine-4-yl)thiomethyl-3cephem-4-carboxylate] | 2 | 2 | 8 | 128 | 32 | 4 | 0.016 | 0.063 | 0.25 | 2 | 4 | 0.25 | 0.13 | 0.25 | 0.25 | 0.5 | 0.13 | 0.13 | 0.13 | 0.031 | minimal inhibitory concentration (MIC) [22]: 0.063; minimal inhibitory concentration (MIC) [23]: 0.031; minimal inhibitory concentration (MIC) [24]: 0.25; minimal inhibitory concentration (MIC) [25]: 4; minimal inhibitory concentration (MIC) [26]: 8; minimal inhibitory concentration (MIC) [27]: 0.25
